Read-outs that look alike come from different tables or passages of the source.

For data set [1] the following is noted: cited from earlier work.
A short description of data set [2]: Oral pharmacokinetics of naratriptan in rats, alone or combined with an absorption enhancer carrier. Format: in vivo, Sprague-Dawley rats. The note with it: Nar 10 mg/kg, carrier 200 mg/kg. On the procedure: In the present invention, the delivery system is the pharmaceutical formulations which may be in the form of a liquid or solid. Liquid formulations may be water-based. The absorption enhancer was dissolved in deionized water. 10 N NaOH solution was used to help dissolving acid form carriers. HCl was added to lower pH of the absorption enhancer stock solution if the pH was higher than 7.4. Naratriptan powder was added to the absorption enhancer solution 5 minutes before dosing. The final concentration of drug was 10 mg/ml, and the final concentration of carrier was 200 mg/ml for the study.
Naratriptan is also designated Nar. Naratriptan was administered alone to rates orally as a control. For oral dosing, single solutions were administrated at time 0, in the following manner: (a) each absorption enhancer carrier (200 mg/kg) in combination with Nar (10 mg/kg) was administered orally to rats; and (b) Nar (10 mg/kg) alone was administered orally to rats. Blood samples were collected by retro-orbital bleed under CO2 anesthesia pre-dosing (0 minute), and 5, 15, 30, 40, 50, 60, 120 and 240 minutes after dosing. […] Both, the Nar/2-HPOD and Nar/2-HPHM combination took approximately ½ the time of Naratriptan alone. […] Also the mean Cmax value of the Nar/4-PPED combination was approximately 2-fold higher compared to that obtained following Naratriptan alone.

[3] abbreviates: Sprague-Dawley, rat, naratriptan in plasma, fasted male rats, single oral dose, n=5.

On to `CNS(=O)(=O)CCc1ccc2[nH]cc(C3CCN(C)CC3)c2c1` [Naratriptan], for which the “time to peak concentrations” value in data set [1] (2.5 mg tablet orally) was 2 to 3 h. Moreover, in data set [1] (during a migraine attack), the time of peak concentration (Tmax) – broadly, the time at which the peak concentration occurs – was 180 to 240 min. Further, in data set [1] (naratriptan tablets), the oral bioavailability result is on record as “about 70%”. Also, in data set [2] (Example 1, rats, oral), the “time of mean peak Naratriptan plasma concentration post-dose” value is 27 min. In data set [2] (setting [3]), the peak concentration (Cmax) (commonly the maximum level reached in the sampled fluid or tissue) came out at 1050 ng/mL and the Tmax is 27 min. Further, the “AU Clast” value in data set [2] (naratriptan in plasma, fasted male rats, single oral dose, n=5) was 62851 ng·min/mL.

The values above are taken from US8148578B2, “Fast acting naratriptan composition” (Emisphere Technologies Inc., priority 2008, dated 2012).
